Experimental data taken from patent US12391737B2, “Soluble NPY2 receptor agonists” (Boehringer Ingelheim International GmbH, priority 2020, dated 2025).

Experiments:
[1] = target: T1, Human Neuropeptide Y2 Receptor (Homo sapiens, UniProt P49146); test: Radioligand binding competition assay (RLB); settings: Table 3, 125I-PYY(1-36) competition; read-out: Ki
T1 construct: purchased CHEMICON HTS066M
T1 sequence (P49146 1-381): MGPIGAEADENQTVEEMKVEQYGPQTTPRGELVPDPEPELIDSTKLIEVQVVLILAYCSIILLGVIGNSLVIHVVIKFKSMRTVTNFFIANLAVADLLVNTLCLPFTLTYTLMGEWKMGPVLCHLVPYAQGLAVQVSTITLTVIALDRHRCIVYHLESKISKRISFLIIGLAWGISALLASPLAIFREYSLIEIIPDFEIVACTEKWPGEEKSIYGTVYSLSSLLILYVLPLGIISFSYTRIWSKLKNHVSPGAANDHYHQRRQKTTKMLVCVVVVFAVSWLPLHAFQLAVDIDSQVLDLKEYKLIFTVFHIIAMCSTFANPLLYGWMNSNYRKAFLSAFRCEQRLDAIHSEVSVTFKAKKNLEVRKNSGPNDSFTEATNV
In short: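 Filtration binding assay on human Y2 receptor membrane preparation, 0.5 μg protein per well, in 50 mM HEPES pH 7.4 containing 5 mM MgCl2, 1 mM CaCl2 and 0.2% ovalbumin. Plates shake 2 h at room temperature before harvest and scintillation counting.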

[2] = Solubility determination; settings: for Sol6: pH 6; for Sol7: pH 7
In short: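 Sample: TFA-salt peptide at 10 mg/ml target in 0.1 M Na diphosphate, pH 6.4 or 7.0, shaken 2 h RT, filtered, diluted to 1 mg/ml.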

Row | Ki [1] [nM] | Sol6 [2] [mg/mL] | Sol7 [2] [mg/mL] | Structure (SMILES)
1 | 0.58 | 0.0 | 0.4 | CC[C@H](C)[C@H](NC(=O)[C@H](CCC(=O)O)NC(=O)[C@H](CCC(=O)O)NC(=O)[C@@H]1CCCN1C(=O)[C@H](CO)NC(=O)[C@H](C)NC(=O)[C@H](C)NC(=O)[C@H](CCC(=O)O)NC(=O)[C@@H]1CCCN1C(=O)[C@@H]1CCCN1C(=O)[C@H](CCCCNC(=O)CCCCCNC(=O)CC[C@H](NC(=O)CCCCCCCCCCCCCCCCC(=O)O)C(=O)O)NC(=O)[C@H](CCC(=O)O)NC(=O)[C@@H]1CCCN1C(=O)[C@H](C)NC(=O)CC(C)C)C(=O)N[C@@H](CCC(N)=O)C(=O)N[C@@H](CCCNC(=N)N)C(=O)N[C@@H](Cc1ccc(O)cc1)C(=O)N[C@@H](Cc1ccc(O)cc1)C(=O)N[C@H](C(=O)N[C@@H](C)C(=O)N[C@@H](CC(C)C)C(=O)N[C@@H](CCCNC(=N)N)C(=O)N[C@@H](Cc1c[nH]cn1)C(=O)N[C@@H](Cc1ccc(O)cc1)C(=O)N[C@@H](Cc1ccc(O)cc1)C(=O)N[C@@H](CC(N)=O)C(=O)N[C@@H](Cc1c[nH]c2ccccc12)C(=O)N[C@@H](CC(C)C)C(=O)N[C@H](C(=O)N[C@@H](CCCNC(=N)N)C(=O)N[C@@H](CCC(N)=O)C(=O)N[C@@H](CCCNC(=N)N)C(=O)N[C@@H](Cc1ccc(O)cc1)C(N)=O)[C@@H](C)O)C(C)C [Compound 158, N{alpha-4}-(3-methylbutanoyl)-N{epsilon-7}-(6-[(4S)-4-carboxy-4-(17-carboxyheptadecanamido)butanamido]hexanoyl)-[4A,7K,9P,11A,17I,18Q,22V,23A,28Y,30W,31L]-hPYY(4-36)]
2 | 0.49 | >10.0 | >10.0 | CC[C@H](C)[C@H](NC(=O)[C@H](CCC(=O)O)NC(=O)[C@H](CCC(=O)O)NC(=O)[C@@H]1CCCN1C(=O)[C@@H](NC(=O)[C@H](C)NC(=O)[C@H](CC(=O)O)NC(=O)[C@H](CCC(=O)O)NC(=O)[C@@H]1CCCN1C(=O)[C@@H]1CCCN1C(=O)[C@H](CCCCNC(=O)CCCCCNC(=O)CC[C@H](NC(=O)CCCCCCCCCCCCCCCCC(=O)O)C(=O)O)NC(=O)[C@H](CCC(=O)O)NC(=O)[C@@H]1CCCN1C(=O)[C@H](C)NC(=O)CC(C)C)[C@@H](C)O)C(=O)N[C@@H](CCC(N)=O)C(=O)N[C@@H](CCCNC(=N)N)C(=O)N[C@@H](Cc1ccc(O)cc1)C(=O)N[C@@H](Cc1ccc(O)cc1)C(=O)N[C@H](C(=O)N[C@@H](CO)C(=O)N[C@@H](CC(C)C)C(=O)N[C@@H](CCCNC(=N)N)C(=O)N[C@@H](Cc1c[nH]cn1)C(=O)N[C@@H](Cc1ccc(O)cc1)C(=O)N[C@@H](Cc1ccc(O)cc1)C(=O)N[C@@H](CC(N)=O)C(=O)N[C@@H](Cc1c[nH]c2ccccc12)C(=O)N[C@@H](CC(C)C)C(=O)N[C@H](C(=O)N[C@@H](CCCNC(=N)N)C(=O)N[C@@H](CCC(N)=O)C(=O)N[C@@H](CCCNC(=N)N)C(=O)N[C@@H](Cc1ccc(O)cc1)C(N)=O)[C@@H](C)O)C(C)C [Compound 28, N{alpha-4}-(3-methylbutanoyl)-N{epsilon-7}-(6-[(4S)-4-carboxy-4-(17-carboxyheptadecanamido)butanamido]hexanoyl)[4A,7K,9P,13T,17I,18Q,22V,28Y,30W,31L]-hPYY(4-36)]
3 | 2.41 | >10.0 | 10.0 | CC(C)CC(=O)N[C@@H](C)C(=O)N1CCC[C@H]1C(=O)N[C@@H](C)C(=O)N[C@@H](CCCCNC(=O)CCCCCNC(=O)CC[C@H](NC(=O)CCCCCCCCCCCCCCCCC(=O)O)C(=O)O)C(=O)N1CCC[C@H]1C(=O)N[C@@H](CCC(=O)O)C(=O)N[C@@H](CCC(=O)O)C(=O)N[C@@H](CC(=O)O)C(=O)N[C@@H](C)C(=O)N[C@@H](CO)C(=O)N1CCC[C@H]1C(=O)N[C@@H](CCC(=O)O)C(=O)N[C@@H](CCC(=O)O)C(=O)N[C@@H](CC(C)C)C(=O)N[C@@H](CCC(N)=O)C(=O)N[C@@H](CCCNC(=N)N)C(=O)N[C@@H](Cc1ccc(O)cc1)C(=O)N[C@@H](CCC(N)=O)C(=O)N[C@H](C(=O)N[C@@H](CO)C(=O)N[C@@H](CC(C)C)C(=O)N[C@@H](CCCNC(=N)N)C(=O)N[C@@H](Cc1c[nH]cn1)C(=O)N[C@@H](Cc1ccc(O)cc1)C(=O)N[C@@H](Cc1ccc(O)cc1)C(=O)N[C@@H](CC(N)=O)C(=O)N[C@@H](Cc1c[nH]c2ccccc12)C(=O)N[C@@H](CC(C)C)C(=O)N[C@H](C(=O)N[C@@H](CCCNC(=N)N)C(=O)N[C@@H](CCC(N)=O)C(=O)N[C@@H](CCCNC(=N)N)C(=O)N[C@@H](Cc1ccc(O)cc1)C(N)=O)[C@@H](C)O)C(C)C [Compound 20, N{alpha-4}-(3-methylbutanoyl)-N{epsilon-7}-(6-[(4S)-4-carboxy-4-(17-carboxyheptadecanamido)butanamido]hexanoyl)[4A,6A,7K,9E,18Q,21Q,22V,28Y,30W,31L]-hPYY(4-36)]
4 | 4.62 | 8.1 | 8.2 | CC(C)CC(=O)N[C@@H](C)C(=O)N1CCC[C@H]1C(=O)N[C@@H](CCC(=O)O)C(=O)N[C@@H](CCCCNC(=O)CCCCCNC(=O)CC[C@H](NC(=O)CCCCCCCCCCCCCCCCC(=O)O)C(=O)O)C(=O)N1CCC[C@H]1C(=O)N[C@@H](CCC(=O)O)C(=O)N[C@@H](CCC(=O)O)C(=O)N[C@@H](CC(=O)O)C(=O)N[C@@H](C)C(=O)N[C@@H](CO)C(=O)N[C@@H](CCC(=O)O)C(=O)N[C@@H](C)C(=O)N[C@@H](CCC(=O)O)C(=O)N[C@@H](CC(C)C)C(=O)N[C@@H](CCC(N)=O)C(=O)N[C@@H](CCCNC(=N)N)C(=O)N[C@@H](Cc1ccc(O)cc1)C(=O)N[C@@H](Cc1ccc(O)cc1)C(=O)N[C@H](C(=O)N[C@@H](CO)C(=O)N[C@@H](CC(C)C)C(=O)N[C@@H](CCCNC(=N)N)C(=O)N[C@@H](Cc1c[nH]cn1)C(=O)N[C@@H](Cc1ccc(O)cc1)C(=O)N[C@@H](Cc1ccc(O)cc1)C(=O)N[C@@H](CC(N)=O)C(=O)N[C@@H](Cc1c[nH]c2ccccc12)C(=O)N[C@@H](CC(C)C)C(=O)N[C@H](C(=O)N[C@@H](CCCNC(=N)N)C(=O)N[C@@H](CCC(N)=O)C(=O)N[C@@H](CCCNC(=N)N)C(=O)N[C@@H](Cc1ccc(O)cc1)C(N)=O)[C@@H](C)O)C(C)C [Compound 80, N{alpha-4}-(3-methylbutanoyl)-N{epsilon-7}-(6-[(4S)-4-carboxy-4-(17-carboxyheptadecanamido)butanamido]hexanoyl)-[4A,7K,9E,14E,15A,18Q,22V,28Y,30W,31L]-hPYY(4-36)]
